In test [1] the test system is MCF-7 cells. Description: MTT assay of metabolic activity, MCF-7. The class given is cell-based, human. Here is the method:
(§1) The GW7604-Alk-PtCl3 complexes (with exclusion of GW7604-Prop-PtCl3) were investigated for cytotoxic effects in SKBr3 (ER-negative, COX-2-positive, Figure 6), MCF-7 (ERα-positive, COX-negative, Figure 6), and noncancerous TSA-201 (human embryonal kidney) cells at concentrations of 10–30 μM using an established MTT (3-(4,5-dimethylthiazol-2-yl)-2,5-diphenyltetrazolium bromide) assay.[60],[69]
(§2) After incubation for 72 h, the amounts of surviving, metabolically active cells were quantified based on their ability to transform the water-soluble yellow dye MTT to a purple formazan, which can be analyzed by UV–vis spectroscopy.
(§3) The exponentially growing cells were seeded at a density of 1750 (MCF-7), 2000 (SKBr3), and 1250 (TSA-201) cells/well into clear flat-bottom 96-well plates in triplicate. Following 24 h of incubation at 37 °C in a humidified atmosphere (5% CO2/95% air), the compounds [freshly prepared stock solutions in DMF, diluted with DMEM to the desired concentration (final DMF concentration of 0.1% (v/v))] were added to reach the indicated concentrations. After another 72 h of incubation, the cellular metabolic activity was measured employing an MTT assay. By adding predissolved MTT reagent in PBS at a final concentration of 0.5 mg/mL, the metabolic activity can be determined via an enzymatic conversion to a purple formazan salt. After 3 h, the medium was aspirated, and 200 μL of DMSO was added to dissolve the formed formazan crystals. The absorbance was measured at 570 and 690 nm (turbidity assessment) using an EnSpire plate reader (PerkinElmer, Waltham, MA, USA). Solvent-treated cells without a compound served as the positive control. Metabolic activity was calculated by the following equation [drawing 1]

Test [2] has as its target T1, ERα ligand-binding domain (Homo sapiens, UniProt P03372).
T1 construct: purchased Invitrogen
T1 sequence (P03372 311-547 limits assumed): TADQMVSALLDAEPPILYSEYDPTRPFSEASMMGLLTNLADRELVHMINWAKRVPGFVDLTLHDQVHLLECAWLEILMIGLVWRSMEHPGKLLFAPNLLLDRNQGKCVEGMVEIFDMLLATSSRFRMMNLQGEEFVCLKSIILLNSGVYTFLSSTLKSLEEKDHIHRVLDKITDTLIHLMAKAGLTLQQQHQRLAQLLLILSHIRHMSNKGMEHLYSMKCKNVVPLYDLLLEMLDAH
Description: TR-FRET ligand binding assay, isolated LBD of ERα. Here is the method: (§4) A modified LanthaScreen TR-FRET alpha/beta assay was performed, according to the manufacturer’s protocol (Invitrogen, Carlsbad, […]), to determine the binding affinity to the isolated LBD. […] Measurements were carried out on a multimode plate reader, Tecan Spark (Tecan, Männedorf, Switzerland). Calculations and visualization were performed with GraphPad Prism 8.0 (GraphPad Software, San Diego, CA, USA).

For test [3], the target named is T2, ERβ ligand-binding domain (Homo sapiens, UniProt Q92731).
T2 construct: purchased Invitrogen
Description: TR-FRET ligand binding assay, isolated LBD of ERβ. Here is the method:
as §4

Test [4] deals with SKBr3 cells. As to the kind of experiment: MTT assay of metabolic activity, SKBr3. The note with it: 72 h, MTT. The class given is cell-based, human. Here is the method:
as §1, §2, §3

Test [5] concerns TSA-201 cells. As to the kind of experiment: MTT assay of metabolic activity, noncancerous TSA-201. It counts as cell-based, human. The following applies: 72 h; for IC50: MTT, read-out: IC50 TSA-210. Here is the method:
as §1, §2, §3

Where [6] appears, read: Homo sapiens, MCF7, 72 h, MTT, read-out: IC50 MCF-7.
[7] abbreviates: 72 h, MTT, read-out: IC50 MCF-7.

Read-outs that look alike come from different tables or passages of the source.

T2 sequence (Q92731 264-498 limits assumed): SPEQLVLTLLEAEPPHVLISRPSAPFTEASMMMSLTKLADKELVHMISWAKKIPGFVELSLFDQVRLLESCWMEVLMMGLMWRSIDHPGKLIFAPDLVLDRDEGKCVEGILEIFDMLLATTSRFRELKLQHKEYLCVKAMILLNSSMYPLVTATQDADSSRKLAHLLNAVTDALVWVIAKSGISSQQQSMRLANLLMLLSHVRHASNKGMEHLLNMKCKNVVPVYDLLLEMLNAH

`CCC(=C(c1ccc(O)cc1)c1ccc(C=CC(=O)O)cc1)c1ccccc1` (mixture of isomers) [GW7604, (E)-3-(4-((E/Z)-1-(4-hydroxyphenyl)-2-phenylbut-1-en-1-yl)phenyl)acrylic acid]: the IC50 in test [1] (Homo sapiens, MCF7, read-out: IC50, reduction of growth of MCF-7 cells) turned out to be 0.171 µM.
Regarding `C=CCCOC(=O)/C=C/c1ccc(C(=C(CC)c2ccccc2)c2ccc(O)cc2)cc1` (mixture of isomers) [GW7604-But, But-3-en-1-yl (E)-3-(4-((E/Z)-1-(4-hydroxyphenyl)-2-phenylbut-1-en-1-yl)phenyl) Acrylate], in test [1] (setting [6]), the IC50 is > 30 µM.
On the same count and under the same terms, the value for `C=CCCCCOC(=O)/C=C/c1ccc(C(=C(CC)c2ccccc2)c2ccc(O)cc2)cc1` (mixture of isomers) [GW7604-Hex, Hex-5-en-1-yl (E)-3-(4-((E/Z)-1-(4-hydroxyphenyl)-2-phenylbut-1-en-1-yl)phenyl) Acrylate] was > 30 µM.
Turning to `C=CCCCOC(=O)/C=C/c1ccc(C(=C(CC)c2ccccc2)c2ccc(O)cc2)cc1` (mixture of isomers) [GW7604-Pent, Pent-4-en-1-yl (E)-3-(4-((E/Z)-1-(4-hydroxyphenyl)-2-phenylbut-1-en-1-yl)phenyl) Acrylate], the “RBA (ERα)” value in test [2] (RBA(E2) = 100%) turned out to be 0.90%. Also, the IC50 in test [2] (read-out: IC50 (ERα), displacement from the LBS) is 0.0391 µM; in test [3] (read-out: IC50 (ERβ), displacement from the LBS), 0.105 µM; in test [1] (setting [6]), > 30 µM. Moreover, in test [3] (RBA(E2) = 100%), the “RBA (ERβ)” value is given as 0.23%.
Take `C=CCOC(=O)/C=C/c1ccc(C(=C(CC)c2ccccc2)c2ccc(O)cc2)cc1` (mixture of isomers) [GW7604-Prop, Prop-2-en-1-yl (E)-3-(4-((E/Z)-1-(4-hydroxyphenyl)-2-phenylbut-1-en-1-yl)phenyl) Acrylate]: the IC50 in test [1] (setting [6]) lay in the range of 20 to 30 µM.
Regarding “Potassium trichlorido[η^2-(but-3-en-1-yl (E)-3-(4-((E/Z)-1-(4-hydroxyphenyl)-2-phenylbut-1-en-1-yl)phenyl)acrylate)]platinate(II) [GW7604-But-PtCl3]”, the IC50 in test [1] (setting [7]) was 20.4 µM; in test [4], > 30 µM; in test [5], > 30 µM. The “decrease of cell viability” value in test [5] (TSA-201, 30 μM) is given as “about 20%”.
On to “Potassium trichlorido[η^2-(hex-5-en-1-yl (E)-3-(4-((E/Z)-1-(4-hydroxyphenyl)-2-phenylbut-1-en-1-yl)phenyl)acrylate)]platinate(II) [GW7604-Hex-PtCl3]”, for which the IC50 in test [1] (setting [7]) was 20.5 µM; in test [4], > 30 µM; in test [5], > 30 µM.
